Source: patent US9161993B2, “Charge triggering of self-organized nanoparticles” (Danmarks Tekniske Universitet, priority 2011, dated 2015)

Biological target: Thermolysin (Bacillus thermoproteolyticus, UniProt P00800)
Details: liposomes exposing RJ111; linker Trp-Ile-Pro-Val-Ser-Leu-Arg-Ser-Gly
Method: The size and ζ-potential (zeta potential) of RJ111 formulated liposomes were measured before and after enzymatic cleavage of the RJ111 peptide linker using Thermolysin as a model enzyme. RJ111 formulated liposomes were mixed with a buffered solution of Thermolysine yielding final concentrations of: 2.2 mM lipid (220 μM RJ111), 220 μg/ml Thermolysine, 1 uM, ZnCl2 0.5 mM CaCl2, 30 mM HEPES and 125 mM NaCl. The reaction mixtures containing Thermolysine and RJ111 formulated in liposomes were heated to 37° C. for a period of 12 hours and the size and ζ-potential were subsequently measured in an equi-osmolar solution of 300 mM Glucose, 10 mM HEPES (pH 7.4) and 1 mM CaCl2. The ζ-potential and size of the non-cleaved RJ111 formulations were measured (ZetaPALS, Brookhaven Instruments Corp., Holtsville, N.Y., USA) in an equi-osmolar solution of 300 mM Glucose, 10 mM HEPES (pH 7.4) and 1 mM CaCl2.

Thermolysin, sequence (P00800 233-548, species assumed): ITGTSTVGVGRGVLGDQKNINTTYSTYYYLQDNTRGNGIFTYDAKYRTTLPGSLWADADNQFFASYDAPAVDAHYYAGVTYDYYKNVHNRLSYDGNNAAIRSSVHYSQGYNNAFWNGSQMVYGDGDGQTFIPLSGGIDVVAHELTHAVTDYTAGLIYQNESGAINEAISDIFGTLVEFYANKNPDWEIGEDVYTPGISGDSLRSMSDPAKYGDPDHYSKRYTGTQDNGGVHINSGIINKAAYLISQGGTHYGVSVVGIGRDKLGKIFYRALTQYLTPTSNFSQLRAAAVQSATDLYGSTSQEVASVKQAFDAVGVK

## (C14)2-dap-Trp-Ile-Pro-Val-Ser-Leu-Arg-Ser-Gly-Glu-Glu-Glu-Glu-PEG2000-OH [RJ111]
  cleavage of peptide linker by Thermolysine: efficiently was cleaved
